Test results reported in patent US8614205B2, “Glutamate receptor modulators and therapeutic agents” (priority 2009, dated 2013).

What was measured:
mGluR5 = target: T1, mGluR5 (Homo sapiens, UniProt P41594); assay: aequorin calcium assay, negative allosteric modulation of mGluR5; type: cell-based; conditions: aequorin assay, agonist at EC80; 10000 = no activity observed at 10,000 nM; read-out: mGluR5 EC50
T1 construct: expression induced with doxycycline
Method: (§1) The ability of test compound to ameliorate the efflux of calcium cations (Ca^++) in the presence of agonist (glutamate or quisqualate) is measured by detection of light emitted by the luminescent protein aequorin triggered by binding of Ca^++. Aequorin is a photoprotein isolated from luminescent jellyfish (like various Aequorea species e.g. Aequorea victoria). Aequorin is composed of two distinct units, the apoprotein apoaequorin, with an approximate molecular weight of 22 kDa, and the prosthetic group, coelenterazine, responsible for emission of light. In the presence of molecular oxygen the two components of aequorin assemble spontaneously, forming the functional protein. Four EF-hand type regions have been identified in the structure of Aequorin and at least 3 of them function as binding sites for Ca+2 ions: Ca+2 binding to these EF hands triggers a conformational change of the protein, that leads it to oxidize its prosthetic group, coelenterazine, into excited coelenteramide and CO2. As the excited coelenteramide relaxes to the ground state, blue light (wavelength=469 nm) is emitted and can be measured by a luminometer. Negative allosteric modulator activity of test compound is expressed as a percentage of the stimulation of reference agonist (glutamate) activity at its EC80 concentration. Assay of Compounds was performed at Euroscreen SA, Gosselies, Belgium.
(§2) Cells stably transfected with mGlu1 or mGlu5 were grown 18 hours prior to the test in culture medium containing 600 ng/ml doxycycline, then were detached by gentle flushing with PBS-EDTA, recovered by centrifugation and resuspended in “assay buffer” (HBSS, 2.1 mM CaCl2, 3 μg/ml GPT (Glutamate-Pyruvate transaminase), 4 mM MEM Sodium Pyruvate, 0.1% BSA, protease free). Cells were incubated at room temperature for at least 4 h with coelenterazine-h. Dose response curves were performed using mGluR1 cells with the orthosteric agonist glutamate and negative allosteric modulator JNJ16259685. Dose response curves were performed using mGluR5 cells with the orthosteric agonist glutamate and negative allosteric modulator MPEP. For agonist testing, 30 μl of cell suspension were mixed with 30 μl of test compound or reference agonist in a 384-well plate. The resulting emission of light was recorded using the Hamamatsu Functional Drug Screening System 6000 (FDSS 6000). For negative allosteric modulator testing, 60 μl of the resulting cell suspension containing the test compound was mixed with 30 μl of the reference agonist at EC80 following an incubation of 3 min after the first injection. The resulting emission of light was recorded using FDSS 6000. […] Plates also contained the reference agonist at a concentration equivalent to the EC80 obtained during the test validation. Negative allosteric modulator activity of test compound was expressed as a percentage of the stimulation of reference agonist activity at its EC80 concentration.

mGluR1 = target: T2, mGluR1 (Homo sapiens, UniProt Q13255); assay: aequorin calcium assay, negative allosteric modulation of mGluR1; type: cell-based; conditions: for mGluR1/mGluR5 Ratio: EC50 for mGluR1 divided by EC50 for mGluR5; for EC50: aequorin assay, agonist at EC80, 10000 = no activity observed at 10,000 nM
T2 construct: expression induced with doxycycline
Method: as §1, §2

T2 sequence (Q13255 19-1194): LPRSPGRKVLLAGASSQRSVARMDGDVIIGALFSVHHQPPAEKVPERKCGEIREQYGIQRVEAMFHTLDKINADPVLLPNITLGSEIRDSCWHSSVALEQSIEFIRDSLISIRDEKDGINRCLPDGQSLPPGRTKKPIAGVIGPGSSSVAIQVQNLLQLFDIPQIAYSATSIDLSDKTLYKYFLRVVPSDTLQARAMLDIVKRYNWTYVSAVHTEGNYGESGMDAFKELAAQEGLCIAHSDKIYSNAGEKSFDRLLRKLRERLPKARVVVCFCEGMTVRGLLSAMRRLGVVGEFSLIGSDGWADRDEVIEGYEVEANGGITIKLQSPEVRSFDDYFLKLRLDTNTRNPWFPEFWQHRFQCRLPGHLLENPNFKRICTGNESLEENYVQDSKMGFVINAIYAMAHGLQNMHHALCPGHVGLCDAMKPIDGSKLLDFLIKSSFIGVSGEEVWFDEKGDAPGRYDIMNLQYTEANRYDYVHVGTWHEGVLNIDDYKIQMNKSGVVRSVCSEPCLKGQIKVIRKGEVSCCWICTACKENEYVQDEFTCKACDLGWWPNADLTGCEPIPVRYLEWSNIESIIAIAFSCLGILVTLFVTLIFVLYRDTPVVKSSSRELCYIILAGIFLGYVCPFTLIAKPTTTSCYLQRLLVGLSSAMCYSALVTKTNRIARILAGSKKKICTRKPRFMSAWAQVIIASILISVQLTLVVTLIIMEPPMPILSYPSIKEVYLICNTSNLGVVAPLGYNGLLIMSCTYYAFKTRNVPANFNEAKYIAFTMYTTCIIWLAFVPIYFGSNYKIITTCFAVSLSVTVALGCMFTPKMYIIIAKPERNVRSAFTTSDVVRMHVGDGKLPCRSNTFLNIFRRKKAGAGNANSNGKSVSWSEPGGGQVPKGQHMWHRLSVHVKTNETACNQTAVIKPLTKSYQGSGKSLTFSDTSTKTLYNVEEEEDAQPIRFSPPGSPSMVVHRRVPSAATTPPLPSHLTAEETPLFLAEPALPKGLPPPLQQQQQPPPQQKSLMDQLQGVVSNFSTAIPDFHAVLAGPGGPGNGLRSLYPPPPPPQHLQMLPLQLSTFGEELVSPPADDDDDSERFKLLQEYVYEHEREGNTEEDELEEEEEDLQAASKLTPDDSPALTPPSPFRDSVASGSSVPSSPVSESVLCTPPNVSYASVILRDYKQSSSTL
T1 sequence (P41594 21-1212): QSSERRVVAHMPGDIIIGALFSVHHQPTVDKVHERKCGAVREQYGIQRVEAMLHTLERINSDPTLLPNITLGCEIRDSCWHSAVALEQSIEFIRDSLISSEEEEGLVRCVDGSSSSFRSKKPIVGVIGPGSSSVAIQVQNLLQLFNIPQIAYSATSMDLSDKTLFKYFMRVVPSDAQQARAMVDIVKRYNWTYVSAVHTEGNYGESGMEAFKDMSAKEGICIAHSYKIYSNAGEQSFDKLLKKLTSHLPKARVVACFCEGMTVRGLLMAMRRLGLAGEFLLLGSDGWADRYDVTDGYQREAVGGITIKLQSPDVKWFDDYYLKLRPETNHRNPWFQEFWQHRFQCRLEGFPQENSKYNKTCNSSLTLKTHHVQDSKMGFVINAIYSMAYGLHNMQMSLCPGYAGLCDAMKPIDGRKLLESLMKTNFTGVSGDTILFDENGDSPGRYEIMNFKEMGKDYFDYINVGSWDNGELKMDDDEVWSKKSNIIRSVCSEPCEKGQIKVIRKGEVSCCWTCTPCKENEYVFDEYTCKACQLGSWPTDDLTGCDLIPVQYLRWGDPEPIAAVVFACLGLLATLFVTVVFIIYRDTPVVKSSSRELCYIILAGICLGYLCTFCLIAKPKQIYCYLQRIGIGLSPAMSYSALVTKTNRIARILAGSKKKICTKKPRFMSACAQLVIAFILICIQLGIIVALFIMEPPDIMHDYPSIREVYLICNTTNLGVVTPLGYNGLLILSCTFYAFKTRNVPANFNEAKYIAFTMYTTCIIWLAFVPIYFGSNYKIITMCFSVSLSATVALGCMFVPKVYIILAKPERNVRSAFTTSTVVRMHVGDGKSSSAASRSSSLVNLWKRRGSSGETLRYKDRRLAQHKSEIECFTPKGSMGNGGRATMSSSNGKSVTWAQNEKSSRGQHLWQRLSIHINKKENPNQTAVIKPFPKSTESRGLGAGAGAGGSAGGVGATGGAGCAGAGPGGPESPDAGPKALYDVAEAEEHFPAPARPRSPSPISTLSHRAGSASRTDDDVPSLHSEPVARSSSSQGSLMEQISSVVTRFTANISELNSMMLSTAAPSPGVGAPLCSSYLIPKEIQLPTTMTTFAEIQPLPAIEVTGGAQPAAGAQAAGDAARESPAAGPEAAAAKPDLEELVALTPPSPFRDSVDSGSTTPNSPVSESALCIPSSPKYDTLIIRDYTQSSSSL

| Structure (SMILES) | EC50 (mGluR5) | mGluR1/mGluR5 Ratio (mGluR1) | EC50 (mGluR1) |
| --- | --- | --- | --- |
| O=C(Nc1ccc([N+](=O)[O-])cc1Cl)c1cc(Cl)cc(Cl)c1O [Compound 2, 3,5-dichoro-N-(2-chloro-4-nitrophenyl)-2 hydroxybenzamide] | 669 nM | 2.36 | 1580 nM |
| O=C(Nc1ccc([N+](=O)[O-])cc1Cl)c1ccccc1O [Compound 4, N-(2-chloro-4-nitrophenyl)-2 hydroxybenzamide] | 168 nM | 1.73 | 290 nM |
| O=C(Nc1ccc(Cl)c(Cl)c1)c1cc(Cl)ccc1O [Compound 5] | 90 nM | 1.99 | 179 nM |
| O=C(Nc1ccccc1)c1cc(Cl)ccc1O [Compound 6] | 731 nM | 4.16 | 3040 nM |
| O=C(Nc1cccc(Br)c1)c1cc(Cl)ccc1O [Compound 9] | 166 nM | 2.77 | 459 nM |

Now from value to molecule:

| EC50 (mGluR5) | mGluR1/mGluR5 Ratio (mGluR1) | EC50 (mGluR1) | Structure (SMILES) |
| --- | --- | --- | --- |
| 84 nM | 28.40 | 2390 nM | Cc1cccc(NC(=O)c2cc(Cl)ccc2O)c1 [Compound 8] |
| 122 nM | 7.64 | 932 nM | C#Cc1cccc(NC(=O)c2cc(Cl)ccc2O)c1 [Compound 10] |
| 48 nM | 7.73 | 371 nM | C=Cc1cccc(NC(=O)c2cc(Cl)ccc2O)c1 [Compound 11, 5-Chloro-2-hydroxy-N-(3-vinylphenyl)benzamide] |
| 135 nM | 6.36 | 859 nM | CCc1cccc(NC(=O)c2cc(Cl)ccc2O)c1 [Compound 12, 5-Chloro-2-hydroxy-N-(3-ethylphenyl)benzamide] |
| 127 nM | 2.15 | 273 nM | O=C(Nc1cccc(C(F)(F)F)c1)c1cc(Cl)ccc1O [Compound 13] |
